# Where a name gives a salt, the structure may show the parent alone.
# Tests used:
# [1] = tested on: purine receptors; test: aequorin-mediated calcium response (flash luminescence) in transfected CHO cells; assay type: cell-based; conditions: ATP 10^-3 to 10^-9 M, 30 seconds after addition, EnduRen or wildtype coelenterazine as substrate (FIG. 9)
# Experimental: (§1) To begin with, plasmids (pcDNA MtAEQ, pcDNA Gα16, and pGL3 CRE-Renilla) were introduced into CHO cells. […] The results are graphed in FIGS. 3 and 4.
# (§2) In detail, a CHO cell line (ATCC-deposited cells) that expresses purine receptors was seeded into 10 cm^2 Petri dishes at a 1.5×10^5 cells/ml cellular concentration.
# (§3) The next day, 2.2 μg Gα16 (pcDNA Gα16), 3 μg aequorin-expressing plasmids (pcDNA MtAequorin), and 3 μg cAMP-responding Renilla luciferase plasmids (pGL3 CRE-Renilla) were transfected into each Petri dish employing 18 μL of FuGENE® 6 (by Roche Diagnostics).
# (§4) The following day, 400 μL of trypsin/EDTA solution was added to the Petri dishes, and the cells were dissociated and suspended in 13 mL of DMEM/F12 FCS nutrient broth. […] Thereafter culturing was continued, and the results six hours later of measuring the activity of Renilla luciferase with the ARVO were diagrammed (FIG. 4). […] It will be understood that, with no induction of cAMP-mediated Renilla luciferase occurring, the purine receptors were Gq-coupled GPCRs.
# Wildtype coelenterazine and, as a stable substrate, EnduRen™ were employed as luminescent substrates for enzymes, and the continuous-measurement regimes were compared. Plasmids were introduced into CHO cells. […]
# [2] = tested on: purine receptors; test: cAMP-responding (CRE) Renilla luciferase reporter assay in CHO cells expressing purine receptors; assay type: cell-based; conditions: ATP 10^-3 to 10^-9 M, six hours later, EnduRen substrate (FIG. 4)
# Experimental: as §1, §2, §3, §4
# [3] = biological target: dopamine receptors (D2RS) (Homo sapiens, UniProt P14416); conditions: D2RS-expressing CHO cells; dopamine 10^-3 to 10^-9 M; following day forskolin added, six hours culturing (FIG. 8)
# Experimental: To begin with, plasmids were introduced into dopamine-receptor (D2RS) expressing cells. Following an overnight culturing, EnduRen™ was added as a substrate, the combination was cultivated four hours, and from 10^−3 to 10^−9 M sample (dopamine) was added.
# In detail, dopamine receptors (D2RS) were transfected into a CHO cell line (ATCC-deposited cells), and, in the same manner as in Embodiment 1, Gα16, aequorin-expressing plasmids, and cAMP-responding Renilla luciferase plasmids were transfected into the stably expressing cell line and the cell suspension solution was adjusted.
# The following day, 10 μL of 10^−5 M forskolin was added, and culturing was continued for six hours. The results of measuring the activity of Renilla luciferase were diagrammed (FIG. 8). In FIG. 8, the vertical axis indicates the per-second luminescent intensity (count per second), and the horizontal axis, the dopamine concentration.
# [4] = biological target: serotonin receptor (5HT2A) (Homo sapiens, UniProt P28223); test: cAMP-responding (CRE) Renilla luciferase reporter assay in serotonin-receptor expressing CHO cells; assay type: cell-based; conditions: 5HT2A-expressing CHO cells; serotonin 2.5x10^-6 to 2.5x10^-12 M; culturing six hours; EnduRen substrate (FIG. 6)
# serotonin receptor (5HT2A), sequence (P28223 whole entry, species assumed): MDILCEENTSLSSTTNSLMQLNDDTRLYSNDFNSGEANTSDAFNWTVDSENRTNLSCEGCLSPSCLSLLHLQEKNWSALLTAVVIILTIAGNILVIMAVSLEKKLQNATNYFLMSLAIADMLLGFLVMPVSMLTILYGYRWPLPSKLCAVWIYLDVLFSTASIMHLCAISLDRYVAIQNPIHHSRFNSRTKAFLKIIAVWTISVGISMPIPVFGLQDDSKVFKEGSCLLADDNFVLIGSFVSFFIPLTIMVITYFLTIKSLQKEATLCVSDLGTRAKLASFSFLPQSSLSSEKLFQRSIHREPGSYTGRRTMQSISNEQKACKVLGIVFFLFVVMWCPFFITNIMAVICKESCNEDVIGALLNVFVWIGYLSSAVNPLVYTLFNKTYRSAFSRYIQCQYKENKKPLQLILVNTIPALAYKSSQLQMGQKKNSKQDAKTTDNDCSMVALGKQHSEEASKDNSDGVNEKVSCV
# Experimental: To begin with, plasmids (pcDNA MtAEQ, pcDNA Gα16, and pGL3 CRE-Renilla) were introduced into serotonin-receptor (5HT2A) expressing cells. Following an overnight culturing, EnduRen™ was added as a substrate, the combination was cultivated four hours, and from 2.5×10^−6 to 2.5×10^−12 M sample (serotonin) was added. For 30 seconds directly post-addition, the aequorin-mediated luminescence was continuously measured.
# In detail, a serotonin receptor (5HT2A) was transfected into a CHO cell line (ATCC-deposited cells), and, in the same manner as in Embodiment 1, Gα16, aequorin-expressing plasmids, and cAMP-responding Renilla luciferase plasmids were transfected into the stably expressing cell line and the cell suspension solution was adjusted.
# As a stable substrate, 30 μm EnduRen™ was added, and after four hours' culturing, 90 μL of the cell suspension solution was added into each well of a 96-well plate into which 10 μL serotonin hydrochloride as serotonin-receptor ligands had been added at 2.5×10^−6 to 2.5×10^−12 M concentration. Results of measuring the change in luminescent intensity for 30 seconds immediately following the suspension addition, employing the ARVO luminometer by Berthold Technologies GmbH, were diagrammed (FIG. 5). In FIG. 5, the vertical axis indicates the per-second luminescent intensity (count per second), and the horizontal axis, the measuring time (seconds). […]
# dopamine receptors (D2RS), sequence (P14416 1-414 isoform P14416-2): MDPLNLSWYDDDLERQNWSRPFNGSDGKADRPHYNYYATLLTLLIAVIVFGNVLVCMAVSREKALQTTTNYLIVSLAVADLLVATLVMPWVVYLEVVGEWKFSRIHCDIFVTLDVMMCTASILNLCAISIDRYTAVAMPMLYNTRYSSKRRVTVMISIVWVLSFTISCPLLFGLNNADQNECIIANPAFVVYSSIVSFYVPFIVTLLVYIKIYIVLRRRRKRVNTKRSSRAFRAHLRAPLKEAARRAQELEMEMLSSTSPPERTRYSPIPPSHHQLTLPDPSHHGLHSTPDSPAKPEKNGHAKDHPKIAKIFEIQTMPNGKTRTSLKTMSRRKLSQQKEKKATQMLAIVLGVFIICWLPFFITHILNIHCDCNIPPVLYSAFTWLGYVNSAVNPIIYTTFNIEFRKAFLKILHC
structure (smiles),measurement,setting,value
"Nc1ncnc2c1ncn2[C@@H]1O[C@H](COP(=O)([O-])OP(=O)([O-])OP(=O)(O)O)[C@@H](O)[C@H]1O.O.[Na+].[Na+] [ATP, adenosine 5′-triphosphate disodium hydrate]",ATP-stimulated calcium response by aequorin luminescence,[1],calcium response can be measured
same,induction of cAMP-mediated Renilla luciferase,[2],no induction
"Cl.NCCc1ccc(O)c(O)c1 [dopamine, dopamine hydrochloride]",forskolin-stimulated activity of Renilla luciferase,[3],declined
"NCCc1c[nH]c2ccc(O)cc12 [serotonin, serotonin hydrochloride]",cAMP-mediated increase in (induction of) Renilla luciferase,[4],increase in (induction of) Renilla luciferase was confirmed
